From patent US20090186814A1, “Methods and Compositions for Reducing Ischemia-Derived Microvascular Damage” (priority 2005, published 2009)
Read-outs that look alike come from different tables or passages of the source. Ends that are not written are not given here. Peptide text beside a SMILES is read from it. * marks the point of attachment. Cbz = O=C(OCc1ccccc1)*; CH2F = FC*

Legend:
[1] = system: caspase-3; conditions: cited from earlier work
[2] = system: rat myocardium; conditions: in vivo rat myocardium; cited from earlier work
[3] = system: rabbit femoral arteries; conditions: in vivo rabbit femoral arteries; cited from earlier work
[4] = system: mouse hearts; test: Ex vivo model of global ischemia and reperfusion injury, Langendorff-perfused mouse hearts (WT and δV1-1 transgenic)
Protocol: Transgenic mice (TG) that selectively express δV1-1 in myocytes were created using α- myosin heavy chain promoter. Hah, H. S., et al., Circ. Res. 91:741-748 (2002). Hemodynamic and morphometric parameters in these transgenic mice, as measured by echocardiographic measurements in vivo, were not different from those measured in wild type mice (WT). Inagaki, K., et al., Circulation 108:869-875 (2003). Mice were heparinized (4000U/kg IP) and anesthetized with sodium pentobarbital (200mg/kg IP). Hearts were perfused with an oxygenated Krebs-Henseleit buffer at 37° C. in a Langendorff system as previously described in Inagaki, K., et al., Circulation 108:869-875 (2003). Hearts were subjected to a 30-minute global ischemia and a 120-minute full reperfusion. The coronary flow rate was kept constant at 3 mL/minute (0.04L/min/g; initial coronary perfusion pressure: WT 67.4±5.1, WT+δV1-1 61.0±4.6, TG 62.6±3.9, TG+δV1-1 64.6±5.4 mmHg; PENS, n=5 for each group; FIG. 1) using an adjustable-speed rotary pump during the experiment to provide 60-80 mmHg of initial coronary perfusion pressure (CPP) as previously reported in Webster, K. A., et al., J. Clin. Invest. 104:239-252 (1999). CPP was measured through a sidearm in the Langendorff system. Coronary vascular resistance (CVR) was defined as CPP divided by coronary flow rate. Hearts were perfused with Tat-conjugated δV1-1 [50 nmol/L; Tat-conjugated δV1-1 described in Chen, L. et al., Proc. Natl. Acad. Sci. U.S.A. 98:11114-11119 (2001)] or vehicle (control) during the first 20 minutes of reperfusion (n=5 for each group). Coronary perfusion effluent was collected to determine creatine phosphokinase (CPK) release.
(§1) At the end of the reperfusion, 1 -mm-thick transverse sections of mouse hearts were incubated in triphenyltetrazolium chloride solution (TTC) (1% in phosphate buffer, pH 7.4) at 37° C. for 15 minutes as described in Inagaki, K. et al., Circulation 108:869-875 (2003) to determine the viable myocardium. One cm-thick transverse segments of the hearts were stained with TTC. Infarct size was expressed as a percentage of the total area at risk. Immunohistochemistry was performed on cardiac tissue two hours after reperfusion in murine hearts (n=5 for each group) as described in Vakeva, A. P., et al., Circulation 97:2259-2267 (1998). Hearts were immediately frozen in Optimal Cutting Temperature (OCT) Compound, and 5-μm-thick cryosections were obtained. Sections were fixed with 4% formaldehyde, blocked with 1 % normal donkey serum and incubated with mouse monoclonal anti-(x-actinin antibody (Sigma-Aldrich) or goat anti-PECAM-1 antibody (Santa Cruz Biochemicals) to distinguish between endothelial cells and myocytes. Secondary antibody treatments were carried out using goat anti-mouse IgG antibody conjugated with FITC or donkey anti-goat lgG antibody conjugated with FITC (Molecular Probe). Terminal deoxynucleotidyl transferase-mediated dUTP nick-end labeling (TUNEL) staining was performed for detection of apoptotic cells (Roche) and nuclei were counterstained with 4, 6-diamidino-2-phenylindole (DAPI; Sigma-Aldrich). Tissue samples from the non-ischemic area were used as negative control. TUNEL-positive nuclei were counted in a total of 1,500 myocytes and 500 of endothelial cells over several random fields.
Data are expressed as mean±SEM. Two-way ANOVA for repeated measures was used for time-course of cardiac function and vascular function, 1-way factorial ANOVA with Fisher's test for multiple comparisons, and unpaired or paired student's t-test for difference between 2 groups. P<0.05 was considered statistically significant.

[5] = system: Yorkshire swine; format: in vivo, pig; set-up: key to CFR(Cx) / CFR(LAD): hyperemic average peak velocity ÷ baseline average peak velocity; conditions: for CFR(LAD): adenosine hyperemia; for CFR(Cx): unaffected left circumflex artery
Protocol: Yorkshire swine (30-45kg) were maintained during the every procedure under anesthesia by inhaled isoflurane (1-2%). A bolus of 300 IU/kg heparin was administered intravenously through the sheath (6 French) placed in the carotid artery. A 10 mm, over-the-wire angioplasty balloon was placed in the left anterior descending artery (LAD) proximal to the first diagonal branch. The balloon was inflated to occlude the LAD for 30 minutes. At the last 1 minute of a 30-minute ischemia, Tat-conjugated δV1-1 (250 ng/kg) or saline was infused at 1 mL/minute for 1 minute through the guide-wire lumen of the balloon catheter (n=9 for each group). Left ventriculogram (LVG) was obtained (40° left anterior oblique projection, 30 frames/sec) to measure cardiac function at 5 time points; before ischemia (baseline), 30 minutes, 24 hours, 5 days, and 10 days after ischemia (n=9 for each group). Ejection fraction (EF) and hypokinetic area were calculated using the software (Plus Plus, Sanders Data System, Calif.) with elimination of frames after premature ventricular contraction beats. Blood pressure and heart rate were measured just before LVG measurements at each time point through the water-filled catheter (Table 1). Coronary flow was measured by a 0.014″ Doppler-tipped guide wire (Flowire, JOMED Inc.) in the LAD, and the unaffected, left circumflex artery (LCx). The wire tip was placed 2 cm distal from the balloon-occluded site in the LAD. After stable baseline flow velocity was recorded, adenosine [endothelium-independent vasodilator; 48 μg; Suryapranata, H., et al., Circulation 89:1109-1117 (1994)] was infused intracoronarily to induce hyperemia (a transient increase in coronary blood flow through microvascular vasodilation) at 5 time points: before ischemia (baseline), 30 minutes, 24 hours, 5 days, and 10 days after ischemia (n=9 for each group). Bradykinin [endothelium-dependent vaodilator, 0.2ml of a 3×10^−6M in saline; Rodriguez-Sinovas, A., et al., J. Appl. Physiol. 95:81-88 (2003)] was also infused intracoronary before ischemia and 24 hours after reperfusion (n=6 for each group). Coronary flow reserve was calculated by dividing the average peak velocity (APV) at hyperemic phase by the baseline APV as described in Suryapranata, H., et al., Circulation 89:1109-1117 (1994). After reperfusion, to determine the area at risk in porcine hearts, LAD ligation was performed at the balloon-occluded site and Evan's Blue (0.0025%) was perfused as previously described in Inagaki, K., et al., Circulation 2304-2307 (2003). All other methods were performed as described in Example 1.

[6] = system: endothelial cells and myocytes of porcine hearts; test: TUNEL staining and electron microscopy of porcine cardiac tissue 4 hours after reperfusion; format: in vivo, pig
Protocol: as §1
Immunohistochemistry was performed on cardiac tissue as described in Example 1 with the exception that immunohisotchemistry was performed 4 hours after reperfusion in porcine hearts (n=3 for each group).
Electron microscopy study was performed on porcine cardiac tissue 4 hours after reperfusion (n=3 for each group). Samples taken from the mid-myocardium were fixed (FIG. 3A) and prepared as previously reported in Gottlieb, R. A., et al., J. Clin Invest. 94:1621-1628 (1994). Ultra-thin sections were stained with uranyl acetate lead citrate and examined with the H300 (Hitachi) electron microscopy. All other methods were as previously described in Examples 1 and 2.

[7] = system: adult rat cardiomyocytes; conditions: cited from earlier work
[8] = system: caspase-3; conditions: myocardium; cited from earlier work
[9] = further δV1-1 infusion to the transgenic hearts
[10] = transgenic mouse hearts, exogenous δV1-1
[11] = wild type hearts, exogenous δV1-1
[12] = wild type hearts, δV1-1 delivered through coronary arteries, 50 nmol/L, first 20 minutes of reperfusion
[13] = LAD, Baseline (before ischemia)
[14] = electron microscopy, 4 hours after reperfusion
[15] = electron microscopy, 4 hours after reperfusion, listed as δV1-
[16] = four hours after reperfusion, TUNEL, n=3

CC(=O)c1c(O)c(C)c(O)c(Cc2c(O)c3c(c(C(=O)/C=C/c4ccccc4)c2O)OC(C)(C)C=C3)c1O [rottlerin]
caspase-3 activity [1]: attenuated

COC(=O)C[C@H](NC(=O)[C@H](C)NC(=O)[C@@H](NC(=O)OCc1ccccc1)C(C)C)C(=O)CF [ZVADfmk] (Cbz-Val-Ala-Asp(OMe)-CH2F)
reperfusion injury [2]: reduces reperfusion injury | staurosporin-induced endothelial apoptosis [3]: reduces

δV1-1: δPKC inhibitor peptide, SEQ ID NO:1 (SFNSYELGSL), amino acids 8-17 of rat δPKC; used Tat-conjugated in the examples (also: Tat conjugate in examples; listed as Rattus norvegicus)
coronary vascular resistance (CVR) during reperfusion ([4]; further treatment of transgenic mouse hearts): significantly minimized the rise of CVR | CPK release [4, 9]: unaffected | infarct size [4, 9]: unaffected | TUNEL-positive myocytes [4, 10]: without any further effect | decrease of TUNEL-positive endothelial cells [4, 10]: 80% | reduction of number of TUNEL positive endothelial cells [4, 11]: 80% | reduction of number of TUNEL positive myocytes [4, 11]: 80% | decrease in CPK release [4, 12]: about 70% | decrease in infarct size [4, 12]: about 70% | CFR(LAD) ([5]; 30 min R): 2.00 ± 0.20 | coronary flow reserve in LAD following bradykinin infusion ([5]; 24 hours after reperfusion, n=6): did not decrease | CFR(LAD) ([5]; 24 hr R): 2.50 ± 0.24 | CFR(LAD) ([5]; 5 days R): 2.68 ± 0.21 | CFR(LAD) ([5]; 10 days R): 2.67 ± 0.27 | ejection fraction ([5]; 10 days after ischemia, n=9): 69.9±1.6% | hypokinetic area ([5]; 10 days after ischemia, n=9): 4.7±2.0% | CFR(LAD) ([5]; Baseline (before ischemia)): 2.52 ± 0.16 | b-APV (baseline average peak flow velocity) ([5]; Cx, 30 min R): 20.3 ± 3 cm/s | h-APV (hyperemia average peak flow velocity) ([5]; Cx, 30 min R): 37 ± 3 cm/s | b-APV (baseline average peak flow velocity) ([5]; Cx, 24 hr R): 15 ± 2 cm/s | h-APV (hyperemia average peak flow velocity) ([5]; Cx, 24 hr R): 30 ± 4 cm/s | b-APV (baseline average peak flow velocity) ([5]; Cx, 5 days R): 25 ± 5 cm/s | h-APV (hyperemia average peak flow velocity) ([5]; Cx, 5 days R): 55 ± 10 cm/s | b-APV (baseline average peak flow velocity) ([5]; Cx, 10 days R): 25 ± 3 cm/s | h-APV (hyperemia average peak flow velocity) ([5]; Cx, 10 days R): 55 ± 5 cm/s | b-APV (baseline average peak flow velocity) ([5]; Cx, Baseline (before ischemia)): 24 ± 2 cm/s | h-APV (hyperemia average peak flow velocity) ([5]; Cx, Baseline (before ischemia)): 61 ± 3 cm/s | b-APV (baseline average peak flow velocity) ([5]; LAD, 30 min R): 27 ± 4 cm/s | h-APV (hyperemia average peak flow velocity) ([5]; LAD, 30 min R): 49 ± 4 cm/s | b-APV (baseline average peak flow velocity) ([5]; LAD, 24 hr R): 18 ± 1 cm/s | h-APV (hyperemia average peak flow velocity) ([5]; LAD, 24 hr R): 46 ± 6 cm/s | b-APV (baseline average peak flow velocity) ([5]; LAD, 5 days R): 24 ± 3 cm/s | h-APV (hyperemia average peak flow velocity) ([5]; LAD, 5 days R): 67 ± 9 cm/s | b-APV (baseline average peak flow velocity) ([5]; LAD, 10 days R): 25 ± 4 cm/s | h-APV (hyperemia average peak flow velocity) ([5]; LAD, 10 days R): 57 ± 6 cm/s | b-APV (baseline average peak flow velocity) [5, 13]: 24 ± 3 cm/s | h-APV (hyperemia average peak flow velocity) [5, 13]: 58 ± 7 cm/s | resting APV and coronary flow reserve in left circumflex artery (LCx, control artery) ([5]; all time points): remained normal | infarct size ([5]; intracoronary treatment at the time of reperfusion, 10 days after ischemia, n=9): 4.4±1.1% | blood pressure, heart rate or vessel diameter vs. control group ([5]; pig, in vivo): no significant differences | CFR(Cx) ([5]; 30 min R): 1.73 ± 0.21 | CFR(Cx) ([5]; 24 hr R): 1.96 ± 0.04 | CFR(Cx) ([5]; 5 days R): 2.01 ± 0.14 | CFR(Cx) ([5]; 10 days R): 2.46 ± 0.20 | CFR(Cx) ([5]; Baseline (before ischemia)): 2.44 ± 0.10 | time until coronary flow reserve (adenosine, LAD) was normalized ([5]; δV1-1-treated pigs): ≤ 24 h | coronary flow reserve following adenosine infusion in LAD after reperfusion ([5]; δV1-1-treated pigs, 250 ng/kg intracoronary at last 1 minute of ischemia): minor decrease | endothelial cell swelling [6, 14]: minimal swelling | microvasculature lumen [6, 14]: patent | myocyte damage (contraction bands, swollen mitochondria) [6, 14]: no such pathological changes were observed | obstruction of capillaries by red and white blood cells [6, 14]: rarely seen | endothelial cell swelling [6, 15]: slight endothelial swelling | myocyte damage (contraction bands, swollen mitochondria) [6, 15]: neither contraction bands nor swollen mitochondria | decrease of apoptosis in endothelial cells [6, 16]: about 70% | decrease of apoptosis in myocytes [6, 16]: about 70% | hyperglycemia-induced apoptosis [7]: inhibits | free radical formation ([7]; hyperglycemia): inhibits | reperfusion-induced caspase-3 activity [8]: reduced
